The test has as its target T1, human PPARγ receptor (Homo sapiens, UniProt P37231).
T1 construct: corresponding to Ser204-Tyr506 for human PPARγ1 receptor and human PPARγ2; expressed in transfected cells; host or cells: CV-1 cells (pSG5-based expression vector)
T1 sequence (P37231 204-505 limits assumed): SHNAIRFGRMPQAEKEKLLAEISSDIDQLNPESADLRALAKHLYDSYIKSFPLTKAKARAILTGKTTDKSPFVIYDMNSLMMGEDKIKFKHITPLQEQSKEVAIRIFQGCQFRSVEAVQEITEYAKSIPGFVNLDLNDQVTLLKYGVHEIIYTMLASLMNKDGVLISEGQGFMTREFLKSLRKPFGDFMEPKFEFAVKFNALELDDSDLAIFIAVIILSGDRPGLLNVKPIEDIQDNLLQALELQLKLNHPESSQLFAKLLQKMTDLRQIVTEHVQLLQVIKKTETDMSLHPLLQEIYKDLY
Kind of test: Luciferase reporter assay of PPARγ agonist activity (Gal4-PPARγ chimera receptor in CV-1 cells). Format: cell-based. As to conditions: luciferase activity with 1 μM Pioglitazone taken as 100, read-out: PPAR γ agonist activity, relative activity; for Emax at 0.1 µM: CV-1, 0.1 μM compound; for Emax at 1 µM: CV-1, 1 μM compound; for Emax at 10 µM: CV-1, 10 μM compound. Here is the method:
Measurement of PPARα Agonist Activity and PPARγ Agonist Activity
1. Materials for Assay of Luciferase Using Human PPARα and PPARγ Receptors
The entire procedure was carried out according to the fundamental methods of genetic engineering and the ordinary method in the yeast one-hybrid or two-hybrid system was applied.
PGL2-UAS5-TK-luc was prepared as a reporter plasmid carrying a response sequence of Gal4 protein as a basic transcription factor of yeast, an enhancer sequence with five repeat part of UAS, a luciferase gene (luc) under the control of timidine kinase (TK) promoter. Specifically, a DNA fragment encoding a TK promoter (−105/+51) on the downstream side of an enhancer sequence comprising two time repeat of UAS was amplified by PCR using pRL-TK carrying a TK promoter (Promega, Trade name: Catalogue No. E2241) as the template and the primers: […]
After the fragment was cleaved with XhoI-Hind III, pGL2-UAS2-TK-luc was obtained by inserting the resultant fragment into the XhoI-Hind III site located on the upstream side of a luciferase structural gene on pGL2-Basic vector (Promega, Trade name: Catalogue No. E1641).
After cleavage of a synthetic DNA as an enhancer sequence comprising three time repeat of Gal4 response sequence (SEQ ID NO: 3): 5′-ATTGGTAC([…])×3 AGATCTCGAC) using KpnI and BgIII was carried out, pGL2-UAS5-TK-luc was prepared by inserting the resulting fragment into the KpnI-BgIIIb site of pGL2-UAS2-TK-luc.
A vector for expression of a chimera receptor protein, in which a ligand binding region of an internuclear receptor human PPARα or PPARγ receptor was fused with the carboxyl terminal of a DNA binding region of yeast Ga14 protein, was prepared as follows:
The structural gene of pSG5 (STRATAGENE, Trade Name: Catalogue No. 216201) as the basic expression vector was changed for the chimera receptor except that the promoter-enhancer region was maintained as it was.
The DNA encoding the ligand binding region of the human PPARα or PPARγ receptor was fused on the downstream side of the DNA encoding the DNA binding region and the amino acid sequence from 1 to 147 positions of Ga14 protein so that their reading frames were fitted and the resulting fused DNA was inserted into pSG5 (trade name) on the down stream side of the promoter-enhancer region. In this step, the DNA sequence was arranged so that a signal for transfer into the nucleus (Ala Pro Lys Lys Lys Arg Lys Val Gly (SEQ ID: No: 4) derived from SV-40T antigen was located on the amino terminal of the ligand binding region of PPARα or PPARγ receptor in order to localize the chimera receptor in the nucleus.
Based on comparison of the human PPAR receptors described in R. Mukherjee et al., [see J. Steroid Biochem. Molec. Biol., Vol. 51, p157 (1994)] and M. E. Green et al., [see Gene Expression, Vol. 4, p281 (1995))], as the structural gene part used for the ligand binding region PPARα or PPARγ, the human PPARα ligand binding region: Ser167-Tyr468; and the PPARγ ligand binding region: Ser176-Tyr478 were used, which had the same sequences corresponding to Ser204-Tyr506 for human PPARγ1 receptor and human PPARγ2, respectively.
In order to monitor influence against the basic transcription, an expression vector was prepared which carried a DNA encoding only the DNA binding region and the amino acid sequence from 1 to 147 position of Ga14 protein defective in its PPAR ligand binding region and a signal for transfer into the nucleus of SV-40T-antigen.
2. Assay of Luciferase Using Human PPARα or PPARγ Receptor
CV-1 cells used as a host cell were cultivated according to an ordinary method. Specifically, a fetal bovine serum (Intergent, Catalogue No. 1020-90) was added to a Dulbecco's modified Eagle's medium (DMEM) so that the final concentration became 10%. Further, penicillin G (50 U/ml) and streptomycin sulfate (50 μg/ml) were added. Cultivation was conducted in the resulting medium in a 5% carbon dioxide gas at 37° C. […]

SMILES strings stand for the structures. Counter-ions that a name gives are not always drawn.

In the case of `CCOC(=O)C(Cc1ccc(OC)c(OCc2cnc3ccc(OC)cc3c2OC(C)C)c1)C(=O)OCC` [Example 28 (129), diethyl{[3-(4-isopropoxy-6-methoxyquinoline-3-yl)methyloxy]-4-methoxyphenyl}methylmalonate hydrochloride], the Emax at 0.1 µM was determined as 1.3%, the Emax at 1 µM is 2.1% and the Emax at 10 µM was 14.7%.

Turning to `CCOC(=O)C(Cc1cccc(OCc2cnc3ccc(OC)cc3c2OC(C)C)c1)C(=O)OCC` [Example 27 (128), diethyl{[3-(4-isopropoxy-6-methoxyquinoline-3-yl)methyloxy]phenyl}methylmalonate hydrochloride], the Emax at 0.1 µM is 1.2%, the Emax at 1 µM turned out to be 2.1% and the Emax at 10 µM turned out to be 42.5%.

As to `CCC(=O)C(Cc1ccc(OCc2cnc3ccc(OC)cc3c2OC(C)C)cc1)C(=O)OC` (stereo not drawn) [Example 23 (137), methyl 2-{[4-(4-isopropoxy-6-methoxyquinoline-3-yl)methyloxy]phenylmethyl}-3-oxopentanoate hydrochloride], the Emax at 0.1 µM amounted to 2.8%, the Emax at 1 µM was 30.5% and the Emax at 10 µM worked out at 63.1%.

As to `CCOC(Cc1ccc(OC)c(OCc2cnc3ccc(OC)cc3c2OC(C)C)c1)C(=O)O` (stereo not drawn) [Example 21 (118), 2-ethoxy-3-{[3-(4-isopropoxy-6-methoxyquinoline-3-yl)methyloxy]-4-methoxyphenyl}propanoic acid], the Emax at 0.1 µM amounted to 1.4%, the Emax at 1 µM was 1.9% and the Emax at 10 µM worked out at 22.4%.

For `CCOC(Cc1cccc(OCc2cnc3ccc(OC)cc3c2OC(C)C)c1)C(=O)O` (stereo not drawn) [Example 20 (114), 2-ethoxy-3-{[3-(4-isopropoxy-6-methoxyquinoline-3-yl)methyloxy]phenyl}propanoic acid], the Emax at 0.1 µM was 9.3%, the Emax at 1 µM stood at 91% and the Emax at 10 µM stood at 110%.

For the compound `CNC(=O)/C(=C/c1ccc(OCc2cnc3ccc(OC)cc3c2OC(C)C)cc1)C(C)=O` [Example 25 (144), 2-{[4-(4-isopropoxy-6-methoxyquinoline-3-yl)methyloxy]phenylmethylene}-3-oxobutanoic acid N-methylamide hydrochloride], the Emax at 0.1 µM was determined as 0.7%, the Emax at 1 µM turned out to be 1.9% and the Emax at 10 µM turned out to be 6.2%.

Consider `COC(=O)C(Cc1ccc(OCc2cnc3ccc(OC)cc3c2OC(C)C)cc1)C(=O)OC` [Example 22 (120), dimethyl{[4-(4-isopropoxy-6-methoxyquinoline-3-yl)methyloxy]phenyl}methylmalonate hydrochloride], for which the Emax at 0.1 µM turned out to be 3.5%, the Emax at 1 µM is 62.3% and the Emax at 10 µM turned out to be 108%.

Source of the values: patent US20030212100A1, “Quinoline derivatives and medicinal use thereof” (priority 2000, published 2003).
